Measurements: US10947271B2, “Antibacterial agents” (THE UNIVERSITY OF QUEENSLAND, priority 2014, dated 2021)

Experiments:
[1] = test system: Enterococcus faecium MDR Van A ATCC 51559; assay: MIC assay, E. faecium MDR Van A ATCC 51559; assay type: cell-based; conditions: 24 h incubation, visual reading
Procedure, shortened: (§1)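 Twofold broth microdilution in Mueller Hinton broth; compounds tested from 8 μg/ml to 0.003 μg/ml. Mid-log cultures were inoculated at 5×10e5 CFU/mL and incubated 24 h at 37° C. MIC was the lowest concentration with no visible growth.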

[2] = Stability of compounds in human plasma; conditions: 50% human plasma/PBS pH 7.4, 37° C.
Description: Briefly test compounds (20 μM) were prepared from a 1 mM stock solution. The human plasma sample (200 μl) was diluted with 160 μl phosphate-buffer saline (PBS, pH 7.4) to a concentration of 50% v/v before use. Solutions were then vortexed and placed on a 37° C. shaker and shaken gently for 10 minutes. 40 μl of the test compounds were then added to the plasma sample and vortexed. For the reaction time t=0 hour, 50 μl of sample was immediately transferred into an eppendorf tube and quenched with 150 μl cold acetonitrile. The remaining plasma solution was incubated and shaken at 37° C. Other samples were collected at time points of 0, 1, 3, 6 and 24 hours whereby 50 μl aliquots were removed and quenched with 150 μl cold acetonitrile. All samples were placed in a 4° C. fridge for 10 minutes then centrifuged at 3000 rpm for 15 minutes. The supernatant (100 μl) was transferred to a glass vial insert for LCMS analysis. The percentage of test compounds remaining at the individual time points relative to sample at time point 0 hour were reported.
Plasma: Human Plasma (Pooled Normal Human Plasma Heparin Anticoagulant 50 mL (IPLA-2 N-04 lot IR09-1001, originally from Innovative Research and imported by BioCore).
All compounds in 100% water (40 μL in 400 μL assay volume equivalent […])
Compounds: 40 μL of the vancomycin derivative solution was added to 160 μL of PBS (pH 7.4) respectively in an Eppendorf tube. 600 μL of cold acetonitrile was added, the tube vortexed and transferred to a glass vial for LC-MS analysis.
Eucatropine: 200 μL of plasma and 190 μL of buffer were vortexed, shaken at 37° C. for 10 minutes. 10 μL of eucatropine solution was then added and the tube vortexed. A 50 μL aliquot was immediately transferred to an Eppendorf tube, 150 μL of cold acetonitrile added and the tube transferred to a 4° C. fridge for 10 minutes. The remaining plasma solution was then transferred to the incubator and shaken at 37° C. The tube was retrieved from the fridge, centrifuged at 3000 rpm for 15 min and 100 μL of supernatant transferred to a glass vial insert for LC-MS analysis. 50 μL aliquots were processed as above at 1, […], 3, 6 and 24 hours and 5 μL was injected into triple quad MS system for analysis. Vancomycin derivatives: 200 μL of plasma and 160 μL of buffer were vortexed and shaken at 37° C. for 10 minutes. 40 μL of compound was then added and the sample was processed as above.

[3] = test system: Streptococcus pneumoniae MDR ATCC 700677; assay: MIC assay, S. pneumoniae MDR ATCC 700677; assay type: cell-based; conditions: 24 h incubation, visual reading
Procedure, shortened: as §1

MRSA (Strain ATCC 43300) = assay: Murine thigh infection model (MRSA); assay type: in vivo, Staphylococcus aureus; conditions: neutropenic CD1 mice
[4] = test system: Staphylococcus aureus MRSA ATCC 43300; assay: MIC assay, S. aureus MRSA ATCC 43300; assay type: cell-based; conditions: 24 h incubation, visual reading
Procedure, shortened: as §1

[5] = single subcutaneous dose 10 mg/kg
[6] = single subcutaneous dose 25 mg/kg

Row | Structure (SMILES) | Minimum Inhibitory Concentration (MIC) E. faecium ATCC51559 [1] | % compound remaining after incubation in 50% human plasma ([2]; 0 h (reference time point)) [%] | % compound remaining after incubation in 50% human plasma ([2]; 1 h) [%] | % compound remaining after incubation in 50% human plasma ([2]; 3 h) [%] | % compound remaining after incubation in 50% human plasma ([2]; 6 h) [%] | % compound remaining after incubation in 50% human plasma ([2]; 24 h) [%] | Minimum Inhibitory Concentration (MIC) S. pneumoniae ATCC 700677 [3] | Average Reduction log Δcfu MRSA/thigh after 26 h (MRSA (Strain ATCC 43300); [5]) | Average Reduction log Δcfu MRSA/thigh after 26 h (MRSA (Strain ATCC 43300); [6]) | Minimum Inhibitory Concentration (MIC) Staph. aureus ATCC43300 [4] | Average Reduction log Δcfu MRSA/thigh after 26 h (MRSA (Strain ATCC 43300); single subcutaneous dose 200 mg/kg) | Average Reduction log Δcfu MRSA/thigh after 26 h (MRSA (Strain ATCC 43300); single subcutaneous dose 50 mg/kg)
1 | CCCCCCCCCCC(=O)N[C@@H](CCCCN)C(=O)N[C@@H](CCCCNC(=O)[C@H]1NC(=O)[C@H]2NC(=O)[C@H](NC(=O)[C@@H]3NC(=O)[C@H](CC(N)=O)NC(=O)[C@H](NC(=O)[C@@H](CC(C)C)NC)[C@H](O)c4ccc(c(Cl)c4)Oc4cc3cc(c4O[C@@H]3O[C@H](CO)[C@@H](O)[C@H](O)[C@H]3O[C@H]3C[C@](C)(N)[C@H](O)[C@H](C)O3)Oc3ccc(cc3Cl)[C@H]2O)c2ccc(O)c(c2)-c2c(O)cc(O)cc21)C(=O)O [MCC_000080, nC10CO-K-K(Vanc)-OH] | x (x = >4) | 100 | 101 | 101 | 100 | 89 | xxx (xxx = 0.1-<1) | xxx (xxx = 4-6) | xxxx (xxxx = >6) | xxx (xxx = 0.1-<1) | – | –
2 | CN[C@H](CC(C)C)C(=O)N[C@H]1C(=O)N[C@@H](CC(N)=O)C(=O)N[C@H]2C(=O)N[C@H]3C(=O)NC(C(=O)N[C@H](C(=O)O)c4cc(O)cc(O)c4-c4cc3ccc4O)[C@H](O)c3ccc(c(Cl)c3)Oc3cc2cc(c3OC2OC(CO)C(O)C(O)C2OC2CC(C)(N)C(O)C(C)O2)Oc2ccc(cc2Cl)[C@H]1O (stereo partly shown) [MCC_000095, vancomycin, reference compound] | – | 100 | 176 | 145 | 149 | 65 | – | – | x (x = 0-2) | – | xxx (xxx = 4-6) | –
3 | CNC(CC(C)C)C(=O)NC1C(=O)NC(CC(N)=O)C(=O)NC2C(=O)NC3C(=O)NC(C(=O)NC(C(=O)NCCCCC(NC(=O)C(CCCCN)NC(=O)C(CCCCN)NC(=O)c4ccc(Oc5ccccc5)cc4)C(=O)O)c4cc(O)cc(O)c4-c4cc3ccc4O)C(O)c3ccc(c(Cl)c3)Oc3cc2cc(c3OC2OC(CO)C(O)C(O)C2OC2CC(C)(N)C(O)C(C)O2)Oc2ccc(cc2Cl)C1O (stereo not shown) [MCC_000214, (4-PhO-PhCO)-KK-K(Vanc)-OH] | x (x = >4) | 100 | 101 | – | 107 | 111 | xxx (xxx = 0.1-<1) | – | – | xxx (xxx = 0.1-<1) | – | xxx (xxx = 4-6)
4 | CN[C@H](CC(C)C)C(=O)N[C@H]1C(=O)N[C@@H](CC(N)=O)C(=O)N[C@H]2C(=O)N[C@H]3C(=O)N[C@H](C(=O)N[C@H](C(=O)NCCCC[C@H](NC(=O)[C@H](CCCCN(C)C)NC(=O)c4ccc(Oc5ccccc5)cc4)C(=O)O)c4cc(O)cc(O)c4-c4cc3ccc4O)[C@H](O)c3ccc(c(Cl)c3)Oc3cc2cc(c3O[C@@H]2O[C@H](CO)[C@@H](O)[C@H](O)[C@H]2O[C@H]2C[C@](C)(N)[C@H](O)[C@H](C)O2)Oc2ccc(cc2Cl)[C@H]1O [MCC_007221] | x (x = >4) | – | – | – | – | – | xx (xx = 1-4) | x (x = 0-2) | – | xxx (xxx = 0.1-<1) | – | –
5 | CCCCCCCCC(=O)NC(CCCCN(C)C)C(=O)NCCCNC(=O)C1NC(=O)C2NC(=O)C(NC(=O)C3NC(=O)C(CC(N)=O)NC(=O)C(NC(=O)C(CC(C)C)NC)C(O)c4ccc(c(Cl)c4)Oc4cc3cc(c4OC3OC(CO)C(O)C(O)C3OC3CC(C)(N)C(O)C(C)O3)Oc3ccc(cc3Cl)C2O)c2ccc(O)c(c2)-c2c(O)cc(O)cc21 (stereo not shown) [MCC_007338] | x (x = >4) | – | – | – | – | – | xxx (xxx = 0.1-<1) | xx (xx = 2-4) | – | xxx (xxx = 0.1-<1) | – | –
6 | CNC(CC(C)C)C(=O)NC1C(=O)NC(CC(N)=O)C(=O)NC2C(=O)NC3C(=O)NC(C(=O)NC(C(=O)NCCCNC(=O)C(CCCCN)NC(=O)c4ccc(Oc5ccccc5)cc4)c4cc(O)cc(O)c4-c4cc3ccc4O)C(O)c3ccc(c(Cl)c3)Oc3cc2cc(c3OC2OC(CO)C(O)C(O)C2OC2CC(C)(N)C(O)C(C)O2)Oc2ccc(cc2Cl)C1O (stereo not shown) [MCC_007407] | x (x = >4) | – | – | – | – | – | xxxx (xxxx = 0.01-<0.1) | xxx (xxx = 4-6) | – | xxxx (xxxx = 0.01-<0.1) | – | –
